Read-outs that look alike come from different tables or passages of the source.

One data set has as its system GRP78. Description: Immunoblotting, expression of GRP78. The data set is classed as cell-based, human. The settings on record: for expression of intracellular GRP78 (time dependent study): 200 nM. On the procedure: (§1) Immunoblotting. MDA-MB-231 and MCF7 cells (0.5×10^6) were plated in six well plates for overnight in a humidified CO2 incubator and then exposed to varying concentrations of 5 (50, 100 and 200 nM) for 24 h along with vehicle (dose dependent study) and 200 nM of 5 for various time points like; 0, 6, 12, 24 and 48 h (time dependent study). Cells were then harvested, washed with chilled PBS and lysed with lysis buffer (HEPES 1 mM, KCl 60 mM, NP-40 0.3%, EDTA 1 mM, DTT 1 mM, sodium orthovanadate 1 mM, PMSF 0.1 mM and cocktail protease inhibitor). The cell extractions were centrifuged at 12,000 rpm for 10 min at 4° C. Protein concentration was measured by the standard Bradford method. An equal amount (20 μg) of protein from each sample was subjected to SDS-PAGE, and proteins were transferred to PVDF membranes (PALL), blocked with 5% (w/v) non-fat milk in PBS containing 0.1% Tween-20, probed with relevant antibodies (1:1000 dilution) for 3 h at room temperature or overnight at 4° C., and subsequently washed and probed with species-specific secondary antibodies coupled to horseradish peroxidase. Immunoreactive proteins were detected by Enhanced Chemiluminescence Plus (Thermo) (Rah et al., 2012, PloS one, 7(9), p.e44039.).
(§2) Drug Potentiation Assay. Briefly, MDA-MB-231 cells were exposed to 200 nM of compound 5, 200 nM of doxorubicin alone and/or combination of both (1:1 ratio) for 48 h in cell viability (MTT) assay, for 5 days in a colony formation assay and subjected to western blotting for the expression of GRP78 and Par-4. The ability of 5 to enhance cell killing was expressed as potentiation index (PI), which was the ratio of the […]. Thus, PI>1 indicates potentiation and PI<1 indicates protection.
For orientation: In western blotting, separated proteins are transferred to a membrane and probed.

Data set [1] concerns MDA-MB-231 cells. The experiment in a line: Cell viability (MTT) assay. The data set is classed as cell-based. The settings on record: Homo sapiens. On the procedure:
(§3) Cell Culture and Reagents. The cell lines used in this study were procured from American Type Culture Collection (ATCC), Manassas, USA. MCF7, T47D and fR2 cells were cultured in RPMI-1640 medium, whereas the MDA-MB-231 cells were grown in Leibovitz's (L-15) medium supplemented with 10% fetal bovine serum (Gibco) and 1% penicillin/streptomycin (Sigma) in a humidified CO2 incubator (New Brunswick Galaxy 170 R) with 5% CO2. Reagents such as phenylmethylsulfonyl fluoride (PMSF), dithiothreitol (DTT), DMSO, crystal violet, and Bradford's reagent were purchased from Sigma-Aldrich. Protease inhibitor cocktail was procured from Roche. The antibodies for human GRP78, Par-4, MMP-2, MMP-9, NF-kB, E-cadherin and TIMP-1 were procured from Santa-Cruz Biotechnology. The β-actin antibody and the secondary antibodies such as anti-rabbit IgG and anti-mouse IgG were procured from Sigma-Aldrich.
(§4) Cell Viability Assay. The cell viability was determined by standard MTT assay method. Briefly, MDA-MB-231, MCF7, T47D and fR2 cells were seeded in 96 well tissue culture plates (Nunc) at a density of 3×10^3 cells per well and treated with varying concentrations of the test compounds in triplicates. DMSO was taken as a vehicle and the final concentration of the DMSO was maintained at 0.2% in the culture medium. Doxorubicin was employed as a positive control. After 44 h of incubation, MTT dye solution was added into the medium and cells were incubated for another 4 h at 37° C. in 5% CO2. The amount of coloured formazan derivatives formed was measured by taking optical density (OD) using a microplate reader (TECAN, Infinite M200 Pro) at 570 nm and the percentage cell viability was calculated. The IC50 values were calculated using GraphPad Prism software (Version 5.0). Table 2. Cytotoxicity (IC50) of all synthesized compounds of invention against panel of human breast cancer cell lines (MDA-MB-231, MCF7, T47D) and normal breast epithelial (fR2) cells.

In the next data set the test system is MCF7 cells. The experiment in a line: Cell viability (MTT) assay. The data set is classed as cell-based. The settings on record: Homo sapiens. On the procedure:
as §3, §4

For the next data set, the system named is T47D cells. Description: Cell viability (MTT) assay. Format: cell-based. The settings on record: Homo sapiens, 44 h + 4 h, mean ± SD of three experiments. How it is done: as §3, §4
Data set [2] has as its system MDA-MB-231 cells. Description: Drug potentiation, cell viability (MTT) assay. Format: cell-based, human. Particulars: 200 nM 5 plus 200 nM doxorubicin (1:1), 48 h. How it is done:
as §2

Data set [3] is described as follows: Pharmacokinetic study, intravenous. The settings on record: mouse, plasma, male Balb/c mice, i.v. 2.5 mg/kg b.w. single dose. The data set is classed as in vivo. On the procedure: Pharmacokinetic (PK) Study. Healthy male Balb/c mice (25-30 grams each) were taken to access the PK profile of 5. There were 11 time points for blood collection and 6 animals were there in each sampling time point for maintaining accuracy of the experiment. Animals were administered with 5, intravenously (2.5 mg/kg, b.w.) and control mice were administered with normal saline. A minimum of 100 μL of plasma was collected from each animal at different time points, viz: (0.083, 0.25, 0.5, 1, 2, 4, 6, 8, 12, 16 and 24 h) after dosing with 5 and then acetonitrile (ACN) 400 μL was added to it to precipitate the plasma proteins. The compound was extracted into the solvent, filtered and analyzed by a 6410B Triple quadrupole LC-MS/MS system (Agilent Technologies, USA). Quantification was performed through multiple reaction monitoring (MRM) separately for all the six samples collected individually at each time point by comparing with the standard calibration curve prepared using Agilent Mass Hunter software (version B.04.00). Various PK parameters like; half life (t1/2) (h), C initial C0 (ng/ml), area under the curve AUC(0-∞) (ng*h/ml), Vd (L/kg), Cl (L/h/kg) and Mean Residence Time (h) were calculated using non-compartmental pharmacokinetic data analysis. […] The pharmacokinetic parameters of compound 5 further provide evidence that the molecule has its very good absorption and biodistribution capability through i.v. route of administration.

The test system of the next data set is MMP-9. The experiment in a line: Immunoblotting, expression of MMP-9. The settings on record: MDA-MB-231 cells; dose dependent. Format: cell-based, human. On the procedure: as §1
The subject of another data set is MMP-2. The experiment in a line: Immunoblotting, expression of MMP-2. Format: cell-based, human. Particulars: MDA-MB-231 cells; dose dependent. On the procedure: as §1

Broadly, the IC50 is the concentration at which inhibition is half-maximal. The term clearance denotes a measure of how efficiently the substance is removed, as volume per time. Broadly, the MRT is a mean duration of stay, worked out from the concentration-time curve. The term Vd denotes the apparent volume that relates the amount in the body to the concentration in plasma or blood. For `CCCCCCCC(c1oc(CO)cc(=O)c1O)c1c[nH]c2ccccc12` (centres unmarked) [Compound 5, 2-{1-(1H-indol-3-yl)octyl}-3-hydroxy-6-(hydroxymethyl)-4H-pyran-4-one], the “expression of intracellular GRP78 (time dependent study)” value in the data set with GRP78 (24 h time point) was “consistent decrease”; in the data set with GRP78 (48 h time period), “almost vanished”. Besides, the “expression of GRP78 (dose dependent study)” value in the data set on GRP78 (100 and 200 nM, 24 h, MDA-MB-231 and MCF7 vs vehicle) was “steady downregulation”. In the data set on GRP78 (MDA-MB-231, 5 and doxorubicin in combination, 24 h, vs each alone, densitometry), the “decrease in the expression of GRP78” value is 5.1 fold. Further, the IC50 with MDA-MB-231 cells [1] (MDA-MB-231, 44 h + 4 h, mean ± SD of three experiments, read-out: IC50 values MDA-MB-231) stood at 209 ± 265 nM; in the data set with MDA-MB-231 cells [1] (MDA-MB-231, read-out: IC50 in MDA-MB-231) it was 209 nM; in the data set with MCF7 cells (MCF7, 44 h + 4 h, mean ± SD of three experiments, read-out: IC50 values MCF7), 150 ± 95 nM; in the data set with MCF7 cells (MCF7, read-out: IC50 in MCF7) it was 150 nM; with T47D cells, 3450 nM; with T47D cells (48 h) it was 3450 nM. In addition, the “potentiation index (PI)” value in the data set with MDA-MB-231 cells [2] is listed as 3.1. Also, the AUC(0-t) in data set [3] (read-out: Area under curve (AUC0-t)) was 395 ng·h/mL. Besides, the AUC(0-inf) in data set [3] (read-out: Area under curve (AUC0-∞)) is 406 ng·h/mL. Also, in data set [3] (read-out: C initial (C0)), the C0 came out at 1220 ng/mL. In addition, the clearance in data set [3] (read-out: Clearance (Cl) (converted)) was 205 mL/min/kg. Moreover, the half-life in data set [3] (read-out: Half life (t1/2) (converted)) was 25.8 min. Also, the MRT in data set [3] (read-out: Mean residence time (MRT)) stood at 27 min. For the same compound, the Vd in data set [3] (read-out: Volume of distribution (Vd)) turned out to be 7.61 L/kg. Also, the “expression of MMP-9” value in the data set on MMP-9 is “downregulated”. In addition, the “expression of MMP-2” value in the data set on MMP-2 is “downregulated”.

These data come from patent publication US11180486B2, “Indolylkojyl methane analogues, process of preparation thereof and use as inhibitor of cancer cells invasion and metastasis” (Council of Scientific & Industrial Research, priority 2017, dated 2021).
